The source of these data is patent US11529302B2, “Composition, artificial nail composition, nail decoration material, artificial nail, stored container, image forming apparatus, and image forming method” (RICOH COMPANY, LTD., priority 2018, dated 2022).

The data set can be described thus: Solubility of polymerization initiator in the acrylamide compound having an ester structure. Format: physicochemical.

Regarding `Cc1cc(C)c(C(=O)P(=O)(C(=O)c2c(C)cc(C)cc2C)c2ccccc2)c(C)c1` [B2-1, Bis(2,4,6-trimethylbenzoyl) phenyl phosphine oxide], the “solubility in the acrylamide compound having an ester structure” value is given as “poor solubility”.
